The values that follow come from US7897772B2, “Acid addition salt of irinotecan” (priority 2004, dated 2011).

Where a name gives a salt, the structure may show the parent alone.

The nature of series [1]: Dissolution of 100 mg/mL salt suspensions on heating and later crystal deposition at 25° C. (Example 2). The format is physicochemical. The following applies: for Dissolution on heating: 100 mg/mL. The method, then: The thus-produced irinotecan nitric acid addition salt solution was stirred at 25° C. After stirring of the solution for about 42 hours, crystals of the irinotecan nitric acid addition salt were deposited.

Series [2] can be described thus: Dissolution of irinotecan acid addition salts in water at 100 mg/mL at room temperature and state of the solution after 6 days of stirring (Example 1). In kind it is physicochemical. Conditions: for Dissolution of the salt in water at room temperature: salt content adjusted to 100 mg/mL, no heating; for State of the Solution after Day 6 (footnote symbol: salt not dissolved): 100 mg/mL in water at room temperature; for State of the Solution after Day 6: 100 mg/mL aqueous solution, membrane-filtered, stirred at room temperature (25° C.) for 6 days, visually observed. The procedure: To an aqueous suspension of irinotecan (1-ethyl-10-[4-(1-piperidino)-1-piperidino]carbonyloxycamptothecin) produced through the method disclosed in Patent Document 1, each acid species was added, to thereby produce a corresponding irinotecan acid addition salt. The irinotecan acid addition salt content was adjusted to 100 mg/mL. […] Each of the aqueous solutions employing sulfuric acid, phosphoric acid methanesulfonic acid, citric acid, maleic acid, and succinic acid, respectively, was filtered by a membrane filter, and the filtrate was stirred at room temperature (25° C.). After continuous stirring for 6 days, the aqueous solution was visually observed so as to evaluate the state of the solution.

Series [3] in a line: Peroral absorbability in beagles: plasma irinotecan level and pharmacokinetic analysis (Example 6). In kind it is in vivo. The following applies: for AUC0-inf (area under time-level curve to infinite time) / Tmax (time to reach maximum plasma level) / Cmax (maximum plasma level): mean ± SD (number of samples in parentheses). The text has this: To each beagle, a solid chow (about 350 g) was fed once a day at around 3 p.m., and the unconsumed chow was removed at around 9 a.m. on the following day, except that on the day before the day of administration the unconsumed chow was removed about two hours after feeding. On the day of administration, blood was drawn three hours after administration and the chow was fed after blood collection. On the day after the day of administration, the unconsumed chow was removed at 9 a.m.
After administration, tap water (about 20 mL) was fed to the mouth of the beagle by use of an injection syringe.
The thus-collected blood samples were dispensed into 1.5-mL tubes, to which heparin sodium (20 μL, 20 units) had been added in advance and which had been dried under nitrogen flow (tubes employed for the first administration were not dried). The samples were centrifuged (4° C., about 13,000×g, one minute) to thereby obtain plasma.
The lower quantification limit was […] plasma.
Non-compartmental analysis of the obtained data was performed by use of a WinNonlin Ver4.1. Data of the following pharmacokinetic parameters were obtained.
Final phase half-time (T1/2),
Time to reach maximum plasma level (Tmax),
Maximum plasma level (Cmax),
Area under time-level curve to infinite time (AUC0-inf),
Bioavailability (BA), wherein
Mean absorption time (MAT), wherein
MAT(h)=(mean residence time (MRT0-inf) after oral administration)−(mean residence time (MRT0-inf) after intravenous injection).

A short description of series [4]: Three-month room-temperature storage of 20, 30 and 40 mg/mL aqueous solutions, visual observation (Example 5). The following applies: three months. The format is physicochemical. The text has this: The filtrate was allowed to stand at room temperature for three months, and the aqueous solution after storage was visually observed so as to evaluate the solution state.

[5] abbreviates: stirred at 100° C. for 30 minutes.
The mark [6] stands for this setting: peroral, 10 mg/kg as irinotecan.
The mark [7] stands for this setting: peroral, 10 mg/kg as irinotecan, 10 mg/kg.
Where [8] appears, read: peroral, 10 mg/kg as irinotecan, listed as irinotecan methanesulfonic acid addition salt, 10 mg/kg.
[9] abbreviates: peroral, 10 mg/kg as irinotecan, listed as irinotecan sulfuric acid addition salt, 10 mg/kg.

`CCc1c2c(nc3ccc(OC(=O)N4CCC(N5CCCCC5)CC4)cc13)-c1cc3c(c(=O)n1C2)COC(=O)[C@]3(O)CC` [Irinotecan acetic acid addition salt, reference compound]: the Dissolution on heating result in series [1] (setting [5]) is “maintained undissolved”. Besides, the “Dissolution of the salt in water at room temperature” value (shortened to “Dissolution of the salt in water”) in series [2] (listed as acetic acid) is given as “not dissolved in water at room temperature”.

Regarding `Br.CCc1c2c(nc3ccc(OC(=O)N4CCC(N5CCCCC5)CC4)cc13)-c1cc3c(c(=O)n1C2)COC(=O)C3(O)CC` (stereo not drawn) [Irinotecan hydrobromic acid addition salt, reference compound], the Dissolution on heating result in series [1] (setting [5]) is given as “maintained undissolved”. Moreover, in series [2], the “State of the Solution after Day 6 (footnote symbol: salt not dissolved)” value is “*1” and the “Dissolution of the salt in water” value is “not dissolved in water at room temperature”.

Turning to `CCc1c2c(nc3ccc(OC(=O)N4CCC(N5CCCCC5)CC4)cc13)-c1cc3c(c(=O)n1C2)COC(=O)[C@]3(O)CC` [Irinotecan methanesulfonic acid addition salt] [irinotecan methanesulfonic acid salt], in series [2], the “State of the Solution after Day 6” value is given as “No crystal deposited” and the “Dissolution of the salt in water” value was “dissolved in water at room temperature”. For the same molecule, the “Plasma irinotecan level (no mean given)” value in series [3] (peroral capsule, 10 mg/kg as irinotecan, 10 min after administration, 10 mg/kg) is recorded as “— (≧3 Beagles of a group consisting of six beagles exhibited a plasma level of ≦5 ng/mL.)”. The “Plasma irinotecan level (no mean given)” value in series [3] (peroral capsule, 10 mg/kg as irinotecan, 20 min after administration) is reported as “— (≧3 Beagles of a group consisting of six beagles exhibited a plasma level of ≦5 ng/mL.)”. For the same molecule, the “Time after administration at which the plasma level reached the maximum (mean profile, text)” value in series [3] (setting [6]) is “two”. Moreover, in series [3] (setting [7]), the “AUC0-inf (area under time-level curve to infinite time)” value (“AUC0-inf” below) is reported as 17.58 ± 2.08(5)^$ μg · h/mL and the “Tmax (time to reach maximum plasma level)” value is recorded as 2.17 ± 0.41(6) h. In series [3] (setting [8]), the “AUC0-inf” value came to 17.68 µg·h/mL and the “Cmax (maximum plasma level)” value was determined as 3470 ng/mL.

In the case of `CCc1c2c(nc3ccc(OC(=O)N4CCC(N5CCCCC5)CC4)cc13)-c1cc3c(c(=O)n1C2)COC(=O)[C@]3(O)CC` [Irinotecan nitric acid addition salt, irinotecan nitric acid salt], in series [1] (100 mg/mL solution dissolved by heating, then stirred at 25° C.), the “Stirring time after which crystals were deposited” value is given as “about 42 hours”. In series [1] (70° C. under stirring for three minutes), the Dissolution on heating result is listed as “completely dissolved”. For the same molecule, in series [2], the “State of the Solution after Day 6 (footnote symbol: salt not dissolved)” value is “*1”. Also, the “Dissolution of the salt in water” value in series [2] (listed as nitric acid) is given as “not dissolved in water at room temperature”.

For the molecule `CCc1c2c(nc3ccc(OC(=O)N4CCC(N5CCCCC5)CC4)cc13)-c1cc3c(c(=O)n1C2)COC(=O)[C@]3(O)CC` [Irinotecan sulfuric acid addition salt, irinotecan sulfuric acid salt], in series [2], the “State of the Solution after Day 6” value is recorded as “No crystal deposited” and the “Dissolution of the salt in water” value is on record as “dissolved in water at room temperature”. Besides, in series [3] (male, beagle, dog, plasma, oral, 10 mg/kg, peroral capsule, 10 mg/kg as irinotecan, 10 min after administration, mean (n=6) ± SD), the concentration at 10 min was 126 ± 112 ng/mL. For the same molecule, in series [3] (male, beagle, dog, plasma, oral, 10 mg/kg, peroral capsule, 10 mg/kg as irinotecan, 20 min after administration, mean (n=6) ± SD), the concentration at 20 min was 1560 ± 1550 ng/mL. The same molecule gave a concentration at 20 min in series [3] (male, beagle, dog, plasma, oral, 10 mg/kg, peroral, 10 mg/kg as irinotecan, twenty minutes after administration) of 1560 ng/mL. For the same molecule, the “BA (bioavailability)” value in series [3] (peroral 10 mg/kg as irinotecan, AUC0-inf oral ÷ AUC0-inf intravenous × 100) was 70.14%. The “Time after administration at which the plasma level became measurable” value in series [3] (setting [6]) was 10 min. Further, the “Plasma irinotecan level maintained” value in series [3] (peroral, 10 mg/kg as irinotecan, from hour 1 to hour 3) is not below 3 µg/mL. Also, in series [3] (setting [7]), the “AUC0-inf” value is recorded as 18.54 ± 1.59(5)^$ μg · h/mL and the “Tmax (time to reach maximum plasma level)” value was 2.33 ± 0.52(6) h. In series [3] (setting [9]), the “AUC0-inf” value turned out to be 13.54 µg·h/mL and the “Cmax (maximum plasma level)” value turned out to be 3670 ng/mL.

Take `CCc1c2c(nc3ccc(OC(=O)N4CCC(N5CCCCC5)CC4)cc13)-c1cc3c(c(=O)n1C2)COC(=O)[C@]3(O)CC.O=[N+]([O-])O` [Nitric acid addition salt (1), irinotecan nitric acid salt]: the “Solution state after storage” value in series [4] (20 mg/mL aqueous solution) is “−”; in series [4] (30 mg/mL aqueous solution) it was “−”; in series [4] (40 mg/mL aqueous solution), “+”.

Regarding `CCc1c2c(nc3ccc(OC(=O)N4CCC(N5CCCCC5)CC4)cc13)-c1cc3c(c(=O)n1C2)COC(=O)[C@]3(O)CC.O=[N+]([O-])O` [Nitric acid addition salt (2), irinotecan nitric acid salt], the “Solution state after storage” value in series [4] (20 mg/mL aqueous solution), in series [4] (30 mg/mL aqueous solution) and in series [4] (40 mg/mL aqueous solution) was “−” throughout.

With `CCc1c2c(nc3ccc(OC(=O)N4CCC(N5CCCCC5)CC4)cc13)-c1cc3c(c(=O)n1C2)COC(=O)[C@]3(O)CC.O=P(O)(O)O` [Phosphoric acid addition salt (2), irinotecan phosphoric acid salt], the “Solution state after storage” value in series [4] (20 mg/mL aqueous solution), in series [4] (30 mg/mL aqueous solution) and in series [4] (40 mg/mL aqueous solution) was “−” in each case.

With `CCc1c2c(nc3ccc(OC(=O)N4CCC(N5CCCCC5)CC4)cc13)-c1cc3c(c(=O)n1C2)COC(=O)C3(O)CC.O=S(=O)(O)O` (stereo not drawn) [Sulfuric acid addition salt (2), irinotecan sulfuric acid salt], the “Solution state after storage” value in series [4] (20 mg/mL aqueous solution), in series [4] (30 mg/mL aqueous solution) and in series [4] (40 mg/mL aqueous solution) was “−” throughout.
